Experimental data from the supplement of paper PMC10307832.

Key:
Assay in all cases: relative viability (nuclei count vs DMSO), 5 days (fraction); higher = more cells survive
XMD14-99 + AZD7762 = compound: CN1CCN(CC1)C2=CC(=C(C=C2)NC3=NC(=C(S3)C(=O)C4=C(C=CC=C4Cl)Cl)N)OC [XMD14-99] + NC(=O)Nc1cc(-c2cccc(F)c2)sc1C(=O)N[C@H]1CCCNC1 [AZD7762] (partner 0.2 µM)
Procedure, shortened: (§1)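 Relative viability is defined as nuclei in treated wells over nuclei in vehicle wells. Duplicate plates were run and medians reported. Lung cancer cell lines in 1536-well plates were dosed by pin tool one day after seeding, with one drug or with a fixed anchor-drug dose plus five library-drug doses (not always all listed) in √10 steps, and nuclei were counted after 5 days.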

XMD14-99 + Trametinib = compound: CN1CCN(CC1)C2=CC(=C(C=C2)NC3=NC(=C(S3)C(=O)C4=C(C=CC=C4Cl)Cl)N)OC [XMD14-99] + CC(=O)Nc1cccc(-n2c(=O)n(C3CC3)c(=O)c3c(Nc4ccc(I)cc4F)n(C)c(=O)c(C)c32)c1 [Trametinib] (partner 0.02 µM)
Procedure, shortened: as §1

AZD1208 + Phenformin = compound: N[C@@H]1CCCN(c2c(/C=C3\SC(=O)NC3=O)cccc2-c2ccccc2)C1 [AZD1208] + N=C(N)NC(=N)NCCc1ccccc1 [Phenformin] (partner 250 µM)
Procedure, shortened: as §1

XMD14-99 + Pictilisib = compound: CN1CCN(CC1)C2=CC(=C(C=C2)NC3=NC(=C(S3)C(=O)C4=C(C=CC=C4Cl)Cl)N)OC [XMD14-99] + CS(=O)(=O)N1CCN(Cc2cc3nc(-c4cccc5[nH]ncc45)nc(N4CCOCC4)c3s2)CC1 [Pictilisib] (partner 1 µM)
Procedure, shortened: as §1

Cell Line	relative viability (XMD14-99 + AZD7762; first compound 0.08 µM)	relative viability (XMD14-99 + AZD7762; first compound 0.8 µM)	relative viability (XMD14-99 + AZD7762; first compound 2.53 µM)	relative viability (XMD14-99 + AZD7762; first compound 8 µM)	relative viability (XMD14-99 + Trametinib; first compound 0.08 µM)	relative viability (XMD14-99 + Trametinib; first compound 0.8 µM)	relative viability (XMD14-99 + Trametinib; first compound 2.53 µM)	relative viability (XMD14-99 + Trametinib; first compound 8 µM)	relative viability (AZD1208 + Phenformin; first compound 0.08 µM)	relative viability (AZD1208 + Phenformin; first compound 0.253 µM)	relative viability (AZD1208 + Phenformin; first compound 0.8 µM)	relative viability (AZD1208 + Phenformin; first compound 2.53 µM)	relative viability (AZD1208 + Phenformin; first compound 8 µM)	relative viability (XMD14-99 + Pictilisib; first compound 0.08 µM)	relative viability (XMD14-99 + Pictilisib; first compound 0.8 µM)	relative viability (XMD14-99 + Pictilisib; first compound 2.53 µM)	relative viability (XMD14-99 + Pictilisib; first compound 8 µM)
NCI-H1915	0.668	0.676	0.701	0.629	0.301	0.311	0.25	0.224	0.366	0.402	0.372	0.348	0.352	0.927	0.934	0.902	0.595
NCI-H1793	0.512	0.298	0.389	0.298	0.462	0.38	0.39	0.268	0.314	0.453	0.342	0.307	0.274	0.423	0.289	0.368	0.333
NCI-H2085	0.95	0.914	0.881	0.72	0.49	0.621	0.498	0.485	0.679	0.677	0.675	0.688	0.668	0.454	0.446	0.445	0.482
LXF-289	1.14	0.969	1.12	0.98	0.632	0.639	0.611	0.529	0.507	0.55	0.472	0.528	0.518	0.699	0.824	0.753	0.597
PC-3 [JPC-3]	0.905	0.789	0.681	0.553	0.749	0.59	0.645	0.577	0.47	0.5	0.496	0.515	0.504	0.793	0.73	0.717	0.586
NCI-H1666	0.858	0.801	0.731	0.736	0.883	0.699	0.739	0.864	0.499	0.583	0.54	0.601	0.559	0.449	0.448	0.403	0.343
NCI-H2087	1.26	1.14	1.04	0.764	0.174	0.176	0.162	0.122	0.46	0.554	0.41	0.481	0.336	0.95	0.787	0.602	0.525
NCI-H1734	0.487	0.513	0.459	0.51	0.659	0.68	0.653	0.642	0.392	0.426	0.336	0.293	0.264	0.436	0.447	0.513	0.389
EMC-BAC-2	1.15	1.11	1.08	0.835	0.832	0.716	0.744	0.668	0.535	0.63	0.497	0.509	0.428	0.573	0.519	0.519	0.413
NCI-H596	1.16	1.01	1.29	1.15	0.749	0.849	1.06	0.764	0.674	1.01	0.689	0.668	0.477	0.399	0.413	0.35	0.396
NCI-H650	1.05	1.06	1.16	0.851	0.861	0.932	1.05	0.907	0.535	0.51	0.448	0.416	0.427	0.931	0.992	0.805	0.72
NCI-H1792	0.822	0.556	0.599	0.305	0.419	0.465	0.399	0.302	0.371	0.233	0.179	0.258	0.138	0.281	0.252	0.22	0.182
ChaGo-K-1	0.844	0.901	0.826	0.825	0.861	0.863	0.895	0.829	0.54	0.569	0.524	0.475	0.373	0.811	0.703	0.67	0.509
LOU-NH91	0.785	0.814	0.714	0.675	0.865	0.829	0.793	0.762	0.715	0.691	0.659	0.684	0.574	0.586	0.614	0.516	0.545
NCI-H3122	0.978	0.893	0.936	0.555	0.261	0.22	0.269	0.22	0.413	0.4	0.406	0.417	0.422	0.563	0.474	0.446	0.326
LCLC-97TM1	0.346	0.293	0.303	0.227	0.172	0.229	0.208	0.18	0.358	0.498	0.429	0.447	0.335	0.165	0.217	0.17	0.172
NCI-H647	0.506	0.472	0.433	0.335	0.456	0.495	0.582	0.442	0.459	0.837	0.344	0.344	0.352	0.421	0.412	0.472	0.379

Cell Line	relative viability (XMD14-99 + AZD7762; first compound 0.08 µM)	relative viability (XMD14-99 + AZD7762; first compound 0.8 µM)	relative viability (XMD14-99 + AZD7762; first compound 2.53 µM)	relative viability (XMD14-99 + AZD7762; first compound 8 µM)	relative viability (XMD14-99 + Trametinib; first compound 0.08 µM)	relative viability (XMD14-99 + Trametinib; first compound 0.8 µM)	relative viability (XMD14-99 + Trametinib; first compound 2.53 µM)	relative viability (XMD14-99 + Trametinib; first compound 8 µM)	relative viability (AZD1208 + Phenformin; first compound 0.08 µM)	relative viability (AZD1208 + Phenformin; first compound 0.253 µM)	relative viability (AZD1208 + Phenformin; first compound 0.8 µM)	relative viability (AZD1208 + Phenformin; first compound 2.53 µM)	relative viability (AZD1208 + Phenformin; first compound 8 µM)	relative viability (XMD14-99 + Pictilisib; first compound 0.08 µM)	relative viability (XMD14-99 + Pictilisib; first compound 0.8 µM)	relative viability (XMD14-99 + Pictilisib; first compound 2.53 µM)	relative viability (XMD14-99 + Pictilisib; first compound 8 µM)
NCI-H838	0.91	0.952	0.975	0.897	0.502	0.486	0.433	0.357	0.524	0.704	0.425	0.583	0.485	0.434	0.411	0.38	0.296
H3255	0.854	0.777	0.75	0.586	0.563	0.67	0.54	0.488	0.37	0.353	0.372	0.401	0.405	0.451	0.39	0.403	0.302
NCI-H1437	1.18	1.05	0.991	0.719	0.532	0.402	0.347	0.305	0.324	0.258	0.267	0.277	0.314	0.392	0.416	0.34	0.214
LU99A	0.3	0.227	0.31	0.235	0.559	0.61	0.512	0.394	0.871	0.921	0.965	0.764	0.638	0.257	0.304	0.267	0.262
HCC-827	0.227	0.202	0.203	0.191	0.539	0.529	0.542	0.432	0.423	0.436	0.425	0.418	0.378	1.1	0.895	0.917	0.998
LK-2	0.375	0.41	0.354	0.235	0.571	0.738	0.706	0.646	0.402	0.218	0.179	0.188	0.135	0.592	0.506	0.517	0.465
HCC-366	0.237	0.215	0.251	0.187	0.424	0.309	0.377	0.261	0.588	0.668	0.538	0.655	0.431	0.137	0.143	0.156	0.149
BEN	0.594	0.736	0.596	0.514	0.971	1.15	1	0.879	0.269	0.267	0.244	0.259	0.269	0.554	0.523	0.641	0.442
NCI-H2347	0.814	0.725	0.673	0.505	0.278	0.288	0.304	0.269	0.302	0.46	0.363	0.347	0.389	0.519	0.871	0.477	0.431
NCI-H1395	0.387	0.462	0.363	0.38	0.992	1.05	0.958	1	0.442	0.438	0.46	0.506	0.417	0.626	0.67	0.585	0.535
201T	0.529	0.598	0.583	0.607	0.693	0.709	0.691	0.664	0.434	0.444	0.429	0.427	0.351	0.7	0.666	0.658	0.619
NCI-H2170	0.787	0.928	0.875	0.702	0.924	0.873	0.828	0.786	0.458	0.385	0.444	0.438	0.447	0.311	0.355	0.273	0.28
NCI-H727	0.582	0.598	0.506	0.578	0.352	0.403	0.384	0.39	0.359	0.497	0.514	0.532	0.524	0.551	0.403	0.321	0.276
HCC-15	1.22	1.17	1.21	1.04	0.415	0.412	0.353	0.349	0.431	0.491	0.459	0.428	0.316	0.727	0.778	0.703	0.495
LCLC-103H	0.804	0.837	0.781	0.681	0.702	0.716	0.719	0.665	0.317	0.246	0.323	0.315	0.28	0.58	0.731	0.558	0.454
NCI-H460	0.619	0.601	0.634	0.453	0.32	0.228	0.126	0.089	0.483	0.697	0.574	0.489	0.545	0.335	0.378	0.345	0.254
EPLC-272H	0.165	0.207	0.254	0.433	0.274	0.265	0.287	0.251	0.313	0.329	0.305	0.272	0.244	0.338	0.338	0.284	0.247
